Reference: patent US10596270B2, “Anti-folate receptor antibody conjugates, compositions comprising anti-folate receptor antibody conjugates, and methods of making and using anti-folate receptor antibody conjugates” (Sutro Biopharma, Inc., priority 2017, dated 2020)
Numbering of substitutions follows the chain as printed. Read-outs that look alike come from different tables or passages of the source. Square brackets hold non-standard residues; d marks the D form. Peptide text beside a SMILES is read from it. * marks the point of attachment. Dolaproine = CO[C@@H]([C@@H]1CCCN1)[C@@H](C)C(=O)O; Dil = CC[C@H](C)[C@H](NC)[C@@H](CC(=O)O)OC; X1 = C[C@@H](N*)[C@@H](O)c1ccccc1; NMeV = CN[C@H](C(=O)O)C(C)C

Columns and labels:
P-glycoprotein (PgP) = experiment: Free drug cell killing on PgP over-expressing MES-SA/MX2 cells with or without PgP inhibitor GF120918; format: cell-based; settings: human, MES-SA/MX2 cells (PgP over-expressing)
Text: (§1) To evaluate if free drug (I) is specifically a substrate of P-glycoprotein (PgP), which is responsible for cisplatin-resistance in some of the ovarian cancer cell lines (Stordal et al. 2012. PLoS One 7(7)), the free drug cell killing activities were investigated on PgP over-expressing MES-SA/MX2 cell line and the parental MES-SA cells. The cell killing activity of free drug (I), free drug (II) and a control free drug (MMAE, designated “III”) on the PgP-overexpressing MES-SA/MX2 cells were reduced by different levels compared to their activity on parental MES-SA cells. The MES-SA/MX2 cells were also treated with PgP inhibitor GF120918 (5 μM) to further investigate if the observed cell killing reduction is contributed by the presence of PgP on the cell surface.

[1] = tested on: MES-SA/MX2 cells (PgP over-expressing); experiment: as above; format: cell-based; settings: for change in cell killing EC50 in the presence and absence of PgP inhibitor GF120918: GF120918 5 μM
Text: as §1

Igrov1 cells = experiment: In vitro cell killing (ADCs, free drugs), Igrov1 cells; format: cell-based; settings: for EC50: Homo sapiens, IGROV-1; for Span: Igrov1 cells, Table 26
Method: The candidate antibody-drug conjugates were tested in cell killing on FolRα-expressing cells, including KB, Igrov1, HeLa and JEG3.

[2] = Pharmacokinetics of free drugs in Sprague-Dawley rats; format: in vivo, rat; settings: for C0 / Cmax / AUC(0-t) / AUC(0-inf) / clearance / half-life / Vd: rat, blood, female Sprague-Dawley rats; for AUC(0-t): read-out: AUC0-last ± SE; for half-life: read-out: Terminal t1/2 (converted); for Vd: read-out: VSS
Method: (§2) Blood samples were collected at […], 1, 2, 8, 24, 32, 48, and 72 hour post-dose. Levels of free drug (I) and (II) were measured by LC-MS/MS and non-compartmental pharmacokinetic analysis was conducted using Phoenix WinNonlin Version 6.4 (Pharsight Corporation). The PK of free drug (I) could not be estimated due to the fact that concentrations of (I) increased from 2 to 8 hours and were undetectable thereafter.

cell line tested = experiment: Free drug in vitro cytotoxicity, various cell lines; format: cell-based; settings: for cytotoxic activity of released free drugs: in words
MES-SA cells = experiment: Free drug cell killing on parental MES-SA cells; format: cell-based; settings: MEA-SA (parental) cells, No GF120918
Text: as §1

A549 cells = experiment: In vitro cell killing (ADCs, free drugs), FolRα-negative A549 cells; format: cell-based; settings: for Span: A549 cells, Table 26, NK = No Killing; for EC50: Homo sapiens, A549
Text: Cytotoxic activities of the two ADC molecules were compared in the presence of excess un-conjugated “naked” antibody as competitior, on cells that were positive FolRα expression (Igrov1 and OVCAR3) and on cells that were negative for FolRα expression (A549).

[3] = Body weight of rats given free drugs; format: in vivo, rat; settings: free drug (I) 0.4 and 1 mg/kg; free drug (II) 0.4 mg/kg; IV bolus
Method: as §2, with “To assess the pharmacokinetic profile of free drug (I), female Sprague-Dawley rats (mean body weight 250 g) were given either a 0.4 mg/kg or 1 mg/kg dose by IV bolus administration (N=three animal per dose level) via an indwelling jugular vein catheter. Blood” for “Blood”

MC38-hFolRα tumors = experiment: MC38-hFOLR1 tumor model, combination with Avelumab; format: in vivo; settings: ADC Molecule 4 10 or 15 mg/kg once IV; Avelumab q3dx3 intraperitoneally
human FOLR1-HIS = target: T1, human FOLR1-HIS (Homo sapiens, UniProt P15328); experiment: Biacore kinetics (surface plasmon resonance); format: binding; settings: humanized 6D1 (2060) antibodies, Table 9
T1 construct: HIS
Method: Anti-Fc polyclonal antibodies were immobilized onto a CM5 chip (GE Life Sciences) using amine coupling chemistry (from Amine Coupling Kit, GE Life Sciences). The immobilization steps were carried out at a flow rate of 25 μL/min in 1×HBS-EP+ buffer (GE Life Sciences; 10× Stock diluted before use). The sensor surfaces were activated for 7 min with a mixture of N-hydroxysuccinimide (NHS, 0.05 M) and 1-ethyl-3-(3-dimethylaminopropyl)-carbodiimide (EDC, 0.2 M). The anti-Fc polyclonal antibodies were injected over all 4 flow cells at a concentration of […]/mL in 10 mM sodium acetate, pH 4.5, for 7 min. Ethanolamine (1 M, pH 8.5) was injected for 7 min to block any remaining activated groups. An average of 12,000 response units (RU) of capture antibody was immobilized on each flow cell.
Off-rate and kinetic binding experiments were performed at 25° C. using 1×HBS-EP+ buffer. Test and control antibodies were injected over the anti-Fc surface at concentrations of 5-10 μg/mL for 12 seconds at a flow rate of 10 μL/min on flow cells 2, 3 and 4, followed by a buffer wash for 30 seconds at the same flow rate. Kinetic characterization of antibody samples was carried out with a single concentration of antigen (for off-rate ranking) or a 1:2 dilution series of antigen (for kinetic characterization) and 1 injection of 0 nM antigen. […] Between each ligand capture and analyte binding cycle, regeneration was carried out using 2 injections of 10 mM glycine pH 2.0 for 30 seconds at 30 μL/min, followed by a 30 second buffer wash step.
The data were fit with the Biacore T200 Evaluation software, using a 1:1 Langmuir binding model. KD (affinity, nM) was determined as a ratio of the kinetic rate constants calculated from the fits of the association and dissociation phases.

[4] = tested on: FOLR1-positive Igrov1 cells; experiment: Secondary antibody cell killing assay, Igrov1 cells; format: cell-based; settings: Table 9; for EC50: read-out: Igrov 2° Antibody Cell Killing, Nb-SC239 EC50
Text: FOLR1-positive KB cells were obtained from ATCC, and FOLR1-positive Igrov1 cells were obtained from NIH. The cells were maintained in Ham's F-12: high glucose DMEM (50:50) (Corning, Cellgro-Mediatech) supplemented with 10% heat-inactivated fetal bovine serum (Corning, Cellgro-Mediatech, Manassas, Va.), 1% Penicillin/Streptomycin (Corning, Cellgro-Mediatech, Manassas, Va.) and 2 mmol/L-glutamax (Thermo Fisher Scientific, Waltham, Mass.). Adherent cells were washed twice with calcium and magnesium-free Hanks Balanced Salt Solution (HBSS), harvested with HYQ® TASE™ (Hyclone; Thermo Fisher Scientific, Waltham, Mass.) and counted by the Vi-CELL Cell Viability Analyzers (Beckman Coulter, Indianapolis, Ind.). A total of 625 cells were seeded in each well of a 384-well flat bottom white polystyrene plate. Lead antibodies were formulated at 4-fold starting concentration in the cell culture medium and filtered through MultiScreenHTS 96-Well Filter Plates (Millipore; Billerica, Mass.). […] Assay plates were cultured at 37° C. in a CO2 incubator for 120 hrs before assay. For cell viability measurement, 30 μL of Cell Titer-Glo® reagent (Promega Corp. Madison, Wis.) was added into each well, and plates were processed as per product instructions. Relative luminescence was measured on an ENVISION® plate reader (Perkin-Elmer; Waltham, Mass.). Relative luminescence readings were converted to percent viability using untreated cells as controls. Data was fitted with non-linear regression analysis, using a log(inhibitor) vs. response-variable slope, 4 parameter fit with GraphPad Prism (GraphPad v 5.0, Software; San Diego, Calif.). Data was expressed as relative cell viability (ATP content) % vs. dose of antibody.

[5] = with GF120918 (5 μM), MEA-SA/MX2 cells, with PgP inhibitor GF120918 (5 μM)
[6] = MEA-SA/MX2 cells (PgP over-expressing), No GF120918
[7] = MEA-SA/MX2 cells, with PgP inhibitor GF120918 (5 μM)

T1 sequence (P15328 25-234): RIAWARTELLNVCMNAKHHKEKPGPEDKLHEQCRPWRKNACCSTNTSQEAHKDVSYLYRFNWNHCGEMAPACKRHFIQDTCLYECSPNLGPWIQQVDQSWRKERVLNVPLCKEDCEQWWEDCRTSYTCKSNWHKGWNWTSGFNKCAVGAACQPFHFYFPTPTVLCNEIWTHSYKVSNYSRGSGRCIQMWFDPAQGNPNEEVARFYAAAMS

CN[C@H](C(=O)N[C@H](C(=O)N(C)[C@H](/C=C(\C)C(=O)O)C(C)C)C(C)(C)C)C(C)(C)c1cccc(N)c1 [free drug (I)]
EC50 (P-glycoprotein (PgP); [5]): 6.4 nM | EC50 (P-glycoprotein (PgP); [6]): 50 nM | change in cell killing EC50 in the presence and absence of PgP inhibitor GF120918 [1]: 8 fold | Span [1, 6]: 100% | Span [1, 7]: 99% | EC50 (Igrov1 cells): 2.4 nM | Span (Igrov1 cells): 92% | plasma level of free drug after dosing ([2]; 0.4 or 1 mg/kg IV bolus, data not shown): undetectable at 24 hours post dose | clearance relative to the other free drug ([2]; IV bolus): more rapid than that of free drug (II) | PK of free drug (I) in rat vs. free drug (II) ([2]; Table 28): Free drug (I) has faster clearance | C0 ([2]; IV bolus, dose level 0.1 mg/kg): 6.81 ng/mL | Cmax ([2]; IV bolus, dose level 0.1 mg/kg): 5.82 ± 0.69 ng/mL | AUC(0-t) ([2]; IV bolus, dose level 0.1 mg/kg): 11 ± 2.1 ng·h/mL | C0 ([2]; IV bolus, dose level 0.4 mg/kg): 15.5 ng/mL | Cmax ([2]; IV bolus, dose level 0.4 mg/kg): 12.8 ± 2.1 ng/mL | AUC(0-t) ([2]; IV bolus, dose level 0.4 mg/kg): 23.9 ± 2.6 ng·h/mL | EC50 (cell line tested; depending on the cell line tested, read-out: cytotoxic activity in vitro EC50): 0.5 to 20 nM | cytotoxic activity of released free drugs (cell line tested): comparable cytotoxic activity | EC50 (MES-SA cells; Homo sapiens, MES-SA): 6 nM | Span (MES-SA cells): 100% | Span (A549 cells): 81% | EC50 (A549 cells): 11 nM | body weight of the animals [3]: did not have an effect on the body weight

COc1cc2cc(c1Cl)N(C)C(=O)C[C@H](OC(=O)[C@H](C)N(C)C(=O)CCC(C)(C)S)[C@]1(C)O[C@H]1[C@H](C)[C@@H]1C[C@@](O)(NC(=O)O1)[C@H](OC)/C=C/C=C(/C)C2 [free drug (II)]
EC50 (P-glycoprotein (PgP); [5]): 1.7 nM | EC50 (P-glycoprotein (PgP); [6]): 28 nM | change in cell killing EC50 in the presence and absence of PgP inhibitor GF120918 [1]: 17 fold | Span [1, 6]: 100% | Span [1, 7]: 98% | EC50 (Igrov1 cells): 4.9 nM | Span (Igrov1 cells): 90% | AUC(0-inf) ([2]; IV bolus, dose level 0.1 mg/kg): 129 ng·h/mL | C0 ([2]; IV bolus, dose level 0.1 mg/kg): 10.7 ng/mL | Cmax ([2]; IV bolus, dose level 0.1 mg/kg): 9.31 ± 2.19 ng/mL | clearance ([2]; IV bolus, dose level 0.1 mg/kg): 12.9 mL/min/kg | AUC(0-t) ([2]; IV bolus, dose level 0.1 mg/kg): 96.9 ± 11 ng·h/mL | half-life ([2]; IV bolus, dose level 0.1 mg/kg): 22.4 h | Vd ([2]; IV bolus, dose level 0.1 mg/kg): 15.8 L/kg | AUC(0-inf) ([2]; IV bolus, dose level 0.4 mg/kg): 242 ng·h/mL | C0 ([2]; IV bolus, dose level 0.4 mg/kg): 62.5 ng/mL | Cmax ([2]; IV bolus, dose level 0.4 mg/kg): 53.3 ± 19 ng/mL | clearance ([2]; IV bolus, dose level 0.4 mg/kg): 27.7 mL/min/kg | AUC(0-t) ([2]; IV bolus, dose level 0.4 mg/kg): 211 ± 70 ng·h/mL | half-life ([2]; IV bolus, dose level 0.4 mg/kg): 44.3 h | Vd ([2]; IV bolus, dose level 0.4 mg/kg): 44.1 L/kg | cytotoxic activity of released free drugs (cell line tested): comparable cytotoxic activity | EC50 (MES-SA cells; Homo sapiens, MES-SA): 1.9 nM | Span (MES-SA cells): 100% | Span (A549 cells): 81% | EC50 (A549 cells): 7.7 nM | body weight of the animals [3]: progressive body weight loss

CC[C@H](C)[C@@H]([C@@H](CC(=O)N1CCC[C@H]1[C@H](OC)[C@@H](C)C(=O)N[C@H](C)[C@@H](O)c1ccccc1)OC)N(C)C(=O)[C@@H](NC(=O)[C@@H](NC)C(C)C)C(C)C [free drug (III), MMAE] (H-[NMeV]V[Dil][Dolaproine]-X1)
change in cell killing EC50 in the presence and absence of PgP inhibitor GF120918 [1]: 111 fold | EC50 [1, 6]: 111 nM | Span [1, 6]: 100% | EC50 [1, 7]: 1 nM | Span [1, 7]: 99% | EC50 (MES-SA cells): 0.75 nM | Span (MES-SA cells): 100%

Avelumab
initial tumor response (MC38-hFolRα tumors): tumor stasis until approximately day 7

B1: SRP2060-E10: affinity-matured humanized 6D1; VH SEQ ID NO 363; VL H6D1-LC4 SEQ ID NO 368 (antibody, V domains shown)
VH: EVQLLESGGGLVQPGGSLRLSCAFSGFSLSTFGMGVGWVRQAPGKGLEWVSHIWWDDDKYYHPALKGRFTISKDNSKNTVYLQMNSLRAEDTAVYYCGRNHFPHYYGSSHWYFNVWGQGTTVTVSS
VL: EIVMTQSPATLSLSPGERATLSCKASQDINSYLSWYQQKPGQAPRLLIYRANRLVDGIPARFSGSGSGTDYTLTISSLEPEDFAVYYCLQYDEFPYTFGGGTKVEIK
modifications: Synthetic SRP2060-E10, VH; Synthetic H6D1-LC4, VL
Biacore kinetics ka (human FOLR1-HIS): 582000 M⁻¹ s⁻¹ | Biacore kinetics kd (human FOLR1-HIS): 0.0012 s⁻¹ | Igrov 2° Antibody Cell Killing, Nb-SC239 span [4]: 68% | EC50 [4]: 0.061 nM

B2: SRP2060-B01 (antibody, V domains shown)
VH: B1 VH with F24L, P43T, Y81H
VL: DIQMTQSPSTLSASVGDRVTITCKASQDINSYLSWYQQKPGKAPKLLIYRANRLVDGVPSRFSGSGSGTEFTLTISSLQPDDFATYYCLQYDEFPYTFGGGTKVEIK
Biacore kinetics ka (human FOLR1-HIS): 561000 M⁻¹ s⁻¹ | Biacore kinetics kd (human FOLR1-HIS): 0.00147 s⁻¹ | Igrov 2° Antibody Cell Killing, Nb-SC239 span [4]: 76% | EC50 [4]: 0.045 nM

B3: SRP2060-A06 (antibody, V domains shown)
VH: B1 VH with S51G, H62Y, N114D
VL: B2 VL
Biacore kinetics ka (human FOLR1-HIS): 547000 M⁻¹ s⁻¹ | Biacore kinetics kd (human FOLR1-HIS): 0.00729 s⁻¹ | Igrov 2° Antibody Cell Killing, Nb-SC239 span [4]: 66% | EC50 [4]: 0.013 nM

B4: SRP2060-E05: affinity-matured humanized 6D1; VH SEQ ID NO 364; VL H6D1-LC4 SEQ ID NO 368 (antibody, V domains shown)
VH: B1 VH with I71V
VL: B1 VL
modifications: Synthetic SRP2060-E05, VH; Synthetic H6D1-LC4, VL
Biacore kinetics ka (human FOLR1-HIS): 541000 M⁻¹ s⁻¹ | Biacore kinetics kd (human FOLR1-HIS): 0.00158 s⁻¹ | Igrov 2° Antibody Cell Killing, Nb-SC239 span [4]: 71% | EC50 [4]: 0.22 nM
